From PubChem BioAssay (NCI)
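A five-concentration, 48-hour dose response in 96-well plates underlies each endpoint, interpolated linearly between surrounding concentrations. GI50 = concentration required for 50% inhibition of growth. The concentration for full growth arrest is given as TGI.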

How the values were obtained:
Assay in all cases: inhibition of tumour cell growth, NCI panel, 48 h
[1] = tested on: 786-0 renal
[2] = tested on: A498 renal
[3] = tested on: A549 NSCLC
[4] = tested on: ACHN renal
[5] = tested on: BT-549 breast
[6] = tested on: CAKI-1 renal
[7] = tested on: CCRF-CEM leukemia
[8] = tested on: COLO 205 colon
[9] = tested on: DU-145 prostate
[10] = tested on: EKVX NSCLC
[11] = tested on: HCC-2998 colon
[12] = tested on: HCT-116 colon
[13] = tested on: HCT-15 colon
[14] = tested on: HL-60(TB) leukemia
[15] = tested on: HOP-62 NSCLC
[16] = tested on: HOP-92 NSCLC
[17] = tested on: HS 578T breast
[18] = tested on: HT29 colon
[19] = tested on: IGROV1 ovarian
[20] = tested on: K-562 leukemia
[21] = tested on: KM12 colon
[22] = tested on: LOX IMVI melanoma
[23] = tested on: M14 melanoma
[24] = tested on: MALME-3M melanoma
[25] = tested on: MCF7 breast
[26] = tested on: MDA-MB-231 breast
[27] = tested on: MDA-MB-435
[28] = tested on: MOLT-4 leukemia
[29] = tested on: NCI-H226 lung
[30] = tested on: NCI-H23 lung
[31] = tested on: NCI-H460 lung
[32] = tested on: NCI-H522 lung
[33] = tested on: NCI/ADR-RES ovarian
[34] = tested on: OVCAR-3 ovarian
[35] = tested on: OVCAR-4 ovarian
[36] = tested on: OVCAR-5 ovarian
[37] = tested on: OVCAR-8 ovarian
[38] = tested on: PC-3 prostate
[39] = tested on: RPMI-8226 leukemia
[40] = tested on: RXF 393 renal
[41] = tested on: SF-268 CNS
[42] = tested on: SF-295 CNS
[43] = tested on: SF-539 CNS
[44] = tested on: SK-MEL-2 melanoma
[45] = tested on: SK-MEL-28 melanoma
[46] = tested on: SK-MEL-5 melanoma
[47] = tested on: SK-OV-3 ovarian
[48] = tested on: SN12C renal
[49] = tested on: SNB-19 CNS
[50] = tested on: SNB-75 CNS
[51] = tested on: SR leukemia
[52] = tested on: SW-620 colon
[53] = tested on: T-47D breast
[54] = tested on: TK-10 renal
[55] = tested on: U251 CNS
[56] = tested on: UACC-257 melanoma
[57] = tested on: UACC-62 melanoma
[58] = tested on: UO-31 renal

In the case of COC(=O)c1c2c(c(C)[n+]([O-])c1C)C(=O)C(NCc1ccc(OC)cc1)=CC2=O, the GI50 [1] was 3.15 µM, the TGI [1] was 18.8 µM and the GI50 [2] was 2.06 µM. The TGI [2] was 4.97 µM, the GI50 [3] was 2.9 µM and the TGI [3] was 10.2 µM. The GI50 [4] was 2.35 µM, the TGI [4] was 9.11 µM and the GI50 [5] was 2.96 µM. It also gave a TGI [5] of 13.3 µM, a GI50 [6] of 2.9 µM and a TGI [6] of 11.2 µM. The GI50 [7] was 2.86 µM, the TGI [7] was 12.8 µM and the GI50 [8] was 0.839 µM. It also gave a TGI [8] of 2.75 µM, a GI50 [9] of 3.02 µM and a TGI [9] of 10.2 µM. The GI50 [10] was 1.88 µM, the TGI [10] was 4.44 µM and the GI50 [11] was 2.27 µM. The TGI [11] was 5.94 µM, the GI50 [12] was 2.17 µM and the TGI [12] was 7.13 µM. It also gave a GI50 [13] of 1.64 µM, a TGI [13] of 3.72 µM and a GI50 [14] of 1.67 µM. It also gave a TGI [14] of 5.25 µM, a GI50 [15] of 3.64 µM and a TGI [15] of 97.2 µM. For the same compound, the GI50 [16] was 2.64 µM, the TGI [16] was 5.91 µM and the GI50 [17] was 3.81 µM. The TGI [17] was 36.6 µM, the GI50 [18] was 2.15 µM and the TGI [18] was over 100 µM. For the same compound, the GI50 [19] was 1.5 µM, the TGI [19] was 3.45 µM and the GI50 [20] was 2.67 µM. For the same compound, the TGI [20] was over 100 µM, the GI50 [21] was 2.19 µM and the TGI [21] was 8.68 µM. It also gave a GI50 [22] of 2.41 µM, a TGI [22] of 7.3 µM and a GI50 [23] of 1.81 µM. The TGI [23] was 3.71 µM, the GI50 [24] was 0.28 µM and the TGI [24] was 1.1 µM. It also gave a GI50 [25] of 1.41 µM, a TGI [25] of 3.35 µM and a GI50 [26] of 2.2 µM. The TGI [26] was 6.14 µM, the GI50 [27] was 1.73 µM and the TGI [27] was 3.15 µM. It also gave a GI50 [28] of 2.36 µM, a TGI [28] of 6.63 µM and a GI50 [29] of 3.45 µM. The TGI [29] was 13.5 µM, the GI50 [30] was 1.81 µM and the TGI [30] was 4.26 µM. For the same compound, the GI50 [31] was 1.7 µM, the TGI [31] was 6.39 µM and the GI50 [32] was 1.95 µM. The TGI [32] was 4.73 µM, the GI50 [33] was 2.42 µM and the TGI [33] was 7.49 µM. The GI50 [34] was 0.315 µM, the TGI [34] was 1.2 µM and the GI50 [35] was 1.12 µM. It also gave a TGI [35] of 2.38 µM, a GI50 [36] of 1.8 µM and a TGI [36] of 4.06 µM. The GI50 [37] was 2.78 µM, the TGI [37] was over 100 µM and the GI50 [38] was 2.31 µM. The TGI [38] was 10.4 µM, the GI50 [39] was 2.41 µM and the TGI [39] was 7.78 µM. For the same compound, the GI50 [40] was 1.55 µM, the TGI [40] was 3.7 µM and the GI50 [41] was 2.64 µM. For the same compound, the TGI [41] was 10.3 µM, the GI50 [42] was 1.79 µM and the TGI [42] was 5.09 µM. For the same compound, the GI50 [43] was 1.68 µM, the TGI [43] was 3.39 µM and the GI50 [44] was 2.23 µM. It also gave a TGI [44] of 5.88 µM, a GI50 [45] of 2.95 µM and a TGI [45] of 11.3 µM. The GI50 [46] was 1.13 µM, the TGI [46] was 2.39 µM and the GI50 [47] was 4.11 µM. It also gave a TGI [47] of 15.8 µM, a GI50 [48] of 1.62 µM and a TGI [48] of 3.65 µM. For the same compound, the GI50 [49] was 2.11 µM, the TGI [49] was 5.03 µM and the GI50 [50] was 3.5 µM. It also gave a TGI [50] of 14.3 µM, a GI50 [51] of 2.47 µM and a TGI [51] of over 100 µM. It also gave a GI50 [52] of 1.95 µM, a TGI [52] of 4.26 µM and a GI50 [53] of 2.12 µM. It also gave a TGI [53] of 5.47 µM, a GI50 [54] of 4.62 µM and a TGI [54] of 20.1 µM. For the same compound, the GI50 [55] was 2.57 µM, the TGI [55] was 8.82 µM and the GI50 [56] was 1.63 µM. The TGI [56] was 3.42 µM, the GI50 [57] was 1.72 µM and the TGI [57] was 3.62 µM. The GI50 [58] was 2.48 µM and the TGI [58] was 10 µM.
